System: SYO-1 complex spheroid growth, percent test/control
Assay: Anticancer human tumor SYO-1 cell line growth inhibition [Asc];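 also: compound exposure lasted 7 days after spheroids grew 3 days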;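 as to viability, T/C: 100% = DMSO vehicle control viability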
Conditions: for IC50: curve of first compound; for viability, T/C: stronger effect = lower value
Procedure, shortened: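 Spheroid model: tumor line + HUVEC + hMSC. Single agents and combinations; top conc. at/near clinical Cmax (10 microM if undetermined), half-log dilutions. DMSO stocks at 800-fold test concentration.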

[1] = second compound 0.00949 µM, first compound 0.00316 µM
[2] = second compound 0.00949 µM, first compound 0.01 µM
[3] = second compound 0.00949 µM, first compound 0.0316 µM
[4] = second compound 0.00949 µM, first compound 0.1 µM
[5] = second compound 0.03 µM, first compound 0.00316 µM
[6] = second compound 0.03 µM, first compound 0.01 µM
[7] = second compound 0.03 µM, first compound 0.0316 µM
[8] = second compound 0.03 µM, first compound 0.1 µM
[9] = second compound 0.0949 µM, first compound 0.00316 µM
[10] = second compound 0.0949 µM, first compound 0.01 µM
[11] = second compound 0.0949 µM, first compound 0.0316 µM
[12] = second compound 0.0949 µM, first compound 0.1 µM
[13] = second compound 0.3 µM, first compound 0.00316 µM
[14] = second compound 0.3 µM, first compound 0.01 µM
[15] = second compound 0.3 µM, first compound 0.0316 µM
[16] = second compound 0.3 µM, first compound 0.1 µM
[17] = second compound 0.949 µM, first compound 0.00316 µM
[18] = second compound 0.949 µM, first compound 0.01 µM
[19] = second compound 0.949 µM, first compound 0.0316 µM
[20] = second compound 0.949 µM, first compound 0.1 µM
[21] = second compound 3 µM, first compound 0.00316 µM
[22] = second compound 3 µM, first compound 0.01 µM
[23] = second compound 3 µM, first compound 0.0316 µM
[24] = second compound 3 µM, first compound 0.1 µM

COc1c(OCCCN2CCOCC2)ccc2c3n(c(=NC(=O)c4cnc(N)nc4)nc12)CCN3 + CCN1C(C(=O)NC23CCC(C(=O)O)(CC2)CC3)C(c2cccc(Cl)c2F)C2(C(=O)Nc3cc(Cl)ccc32)C12CCCCC2
IC50 (second compound 0.00949 µM): 800 nM
IC50 (second compound 0.03 µM): 540 nM
IC50 (second compound 0.0949 µM): 123 nM
IC50 (second compound 0.3 µM): < 3.16 nM
IC50 (second compound 0.949 µM): < 3.16 nM
IC50 (second compound 3 µM): < 3.16 nM
viability, T/C [1]: 110%
viability, T/C [2]: 109%
viability, T/C [3]: 101%
viability, T/C [4]: 85.2%
viability, T/C (second compound 0.00949 µM, first compound 0.316 µM): 75.4%
viability, T/C (second compound 0.00949 µM, first compound 1 µM): 43.4%
viability, T/C [5]: 103%
viability, T/C [6]: 103%
viability, T/C [7]: 96.9%
viability, T/C [8]: 80.8%
viability, T/C (second compound 0.03 µM, first compound 0.316 µM): 69.3%
viability, T/C (second compound 0.03 µM, first compound 1 µM): 30.6%
viability, T/C [9]: 85.8%
viability, T/C [10]: 86.3%
viability, T/C [11]: 77.2%
viability, T/C [12]: 52.1%
viability, T/C (second compound 0.0949 µM, first compound 0.316 µM): 32.2%
viability, T/C (second compound 0.0949 µM, first compound 1 µM): 16%
viability, T/C [13]: 20.3%
viability, T/C [14]: 23.4%
viability, T/C [15]: 19.3%
viability, T/C [16]: 16.3%
viability, T/C (second compound 0.3 µM, first compound 0.316 µM): 12%
viability, T/C (second compound 0.3 µM, first compound 1 µM): 2.7%
viability, T/C [17]: 2.01%
viability, T/C [18]: 3.89%
viability, T/C [19]: 3.28%
viability, T/C [20]: 2.38%
viability, T/C (second compound 0.949 µM, first compound 0.316 µM): 3.39%
viability, T/C (second compound 0.949 µM, first compound 1 µM): 0.44%
viability, T/C [21]: 1.01%
viability, T/C [22]: 1.03%
viability, T/C [23]: 1.75%
viability, T/C [24]: 0.55%
viability, T/C (second compound 3 µM, first compound 0.316 µM): 0.57%
viability, T/C (second compound 3 µM, first compound 1 µM): 0.45%

NC(=O)C(=Cn1cnc(-c2cc(C(F)(F)F)cc(C(F)(F)F)c2)n1)c1cncnc1 + CCN1C(C(=O)NC23CCC(C(=O)O)(CC2)CC3)C(c2cccc(Cl)c2F)C2(C(=O)Nc3cc(Cl)ccc32)C12CCCCC2
IC50 (second compound 0.00949 µM): 165 nM
IC50 (second compound 0.03 µM): 134 nM
IC50 (second compound 0.0949 µM): 41.7 nM
IC50 (second compound 0.3 µM): < 0.949 nM
IC50 (second compound 0.949 µM): < 0.949 nM
IC50 (second compound 3 µM): < 0.949 nM
viability, T/C (second compound 0.00949 µM, first compound 0.000949 µM): 96.3%
viability, T/C (second compound 0.00949 µM, first compound 0.003 µM): 96.1%
viability, T/C (second compound 0.00949 µM, first compound 0.00949 µM): 99.3%
viability, T/C (second compound 0.00949 µM, first compound 0.03 µM): 87.8%
viability, T/C (second compound 0.00949 µM, first compound 0.0949 µM): 87.5%
viability, T/C (second compound 0.00949 µM, first compound 0.3 µM): 9.44%
viability, T/C (second compound 0.03 µM, first compound 0.000949 µM): 99.4%
viability, T/C (second compound 0.03 µM, first compound 0.003 µM): 94.6%
viability, T/C (second compound 0.03 µM, first compound 0.00949 µM): 90.1%
viability, T/C (second compound 0.03 µM, first compound 0.03 µM): 90.5%
viability, T/C (second compound 0.03 µM, first compound 0.0949 µM): 69.4%
viability, T/C (second compound 0.03 µM, first compound 0.3 µM): 5.52%
viability, T/C (second compound 0.0949 µM, first compound 0.000949 µM): 83.4%
viability, T/C (second compound 0.0949 µM, first compound 0.003 µM): 80.9%
viability, T/C (second compound 0.0949 µM, first compound 0.00949 µM): 76.6%
viability, T/C (second compound 0.0949 µM, first compound 0.03 µM): 64.6%
viability, T/C (second compound 0.0949 µM, first compound 0.0949 µM): 14.6%
viability, T/C (second compound 0.0949 µM, first compound 0.3 µM): 1.56%
viability, T/C (second compound 0.3 µM, first compound 0.000949 µM): 20.1%
viability, T/C (second compound 0.3 µM, first compound 0.003 µM): 21.6%
viability, T/C (second compound 0.3 µM, first compound 0.00949 µM): 12.9%
viability, T/C (second compound 0.3 µM, first compound 0.03 µM): 8.55%
viability, T/C (second compound 0.3 µM, first compound 0.0949 µM): 1.72%
viability, T/C (second compound 0.3 µM, first compound 0.3 µM): 0.32%
viability, T/C (second compound 0.949 µM, first compound 0.000949 µM): 2.25%
viability, T/C (second compound 0.949 µM, first compound 0.003 µM): 1.92%
viability, T/C (second compound 0.949 µM, first compound 0.00949 µM): 1.01%
viability, T/C (second compound 0.949 µM, first compound 0.03 µM): 0.78%
viability, T/C (second compound 0.949 µM, first compound 0.0949 µM): 0.55%
viability, T/C (second compound 0.949 µM, first compound 0.3 µM): 1.54%
viability, T/C (second compound 3 µM, first compound 0.000949 µM): 0.73%
viability, T/C (second compound 3 µM, first compound 0.003 µM): 1.1%
viability, T/C (second compound 3 µM, first compound 0.00949 µM): 0.93%
viability, T/C (second compound 3 µM, first compound 0.03 µM): 1.16%
viability, T/C (second compound 3 µM, first compound 0.0949 µM): 1.19%
viability, T/C (second compound 3 µM, first compound 0.3 µM): 2%

NC1CCC(NC2CC2c2ccccc2)CC1 (stereo unspecified) + CCN1C(C(=O)NC23CCC(C(=O)O)(CC2)CC3)C(c2cccc(Cl)c2F)C2(C(=O)Nc3cc(Cl)ccc32)C12CCCCC2
IC50 (second compound 0.00949 µM): > 100 nM
IC50 (second compound 0.03 µM): > 100 nM
IC50 (second compound 0.0949 µM): > 100 nM
IC50 (second compound 0.3 µM): < 0.316 nM
IC50 (second compound 0.949 µM): < 0.316 nM
IC50 (second compound 3 µM): < 0.316 nM
viability, T/C (second compound 0.00949 µM, first compound 0.000316 µM): 102%
viability, T/C (second compound 0.00949 µM, first compound 0.001 µM): 96.7%
viability, T/C [1]: 88%
viability, T/C [2]: 88%
viability, T/C [3]: 94.2%
viability, T/C [4]: 91.1%
viability, T/C (second compound 0.03 µM, first compound 0.000316 µM): 98%
viability, T/C (second compound 0.03 µM, first compound 0.001 µM): 96.8%
viability, T/C [5]: 88.9%
viability, T/C [6]: 84.6%
viability, T/C [7]: 85.9%
viability, T/C [8]: 89.5%
viability, T/C (second compound 0.0949 µM, first compound 0.000316 µM): 84.9%
viability, T/C (second compound 0.0949 µM, first compound 0.001 µM): 74.4%
viability, T/C [9]: 57.8%
viability, T/C [10]: 53.4%
viability, T/C [11]: 55.2%
viability, T/C [12]: 51.7%
viability, T/C (second compound 0.3 µM, first compound 0.000316 µM): 18.6%
viability, T/C (second compound 0.3 µM, first compound 0.001 µM): 18.2%
viability, T/C [13]: 6.03%
viability, T/C [14]: 8.44%
viability, T/C [15]: 13.7%
viability, T/C [16]: 11.2%
viability, T/C (second compound 0.949 µM, first compound 0.000316 µM): 1.71%
viability, T/C (second compound 0.949 µM, first compound 0.001 µM): 2.22%
viability, T/C [17]: 1.78%
viability, T/C [18]: 1.87%
viability, T/C [19]: 1.95%
viability, T/C [20]: 1.33%
viability, T/C (second compound 3 µM, first compound 0.000316 µM): 1.21%
viability, T/C (second compound 3 µM, first compound 0.001 µM): 1.53%
viability, T/C [21]: 2.09%
viability, T/C [22]: 1.25%
viability, T/C [23]: 1.49%
viability, T/C [24]: 1.44%

From PubChem BioAssay AID1963432 (Molecular Pharmacology Branch, DTP, NCI, 2024)
